In patent publication US20250049816A1, “COMPOSITIONS COMPRISING THYMOQUINONE AND VITAMIN D” (N.S. Oils Ltd., priority 2021, published 2025):
“Also recorded” adds a separate entry of the source.

Tests used:
Assay type in all cases: cell-based, murine
TNF-α = experiment: Western blot, TNF-α levels produced by cultured differentiated 3T3-L1 cells; details: 1 μM TQ alone or 10 nM Vitamin D3 alone, vs untreated control (C), FIG. 9
Protocol: (§1) 3T3-L1 murine fibroblasts were obtained from American Type Culture Collection (Rockville, MD, USA). After thawing, cells were resuspended in DMEM, supplemented with 10% heat-inactivated fetal bovine serum (FBS, Invitrogen, Carlsbad, CA, USA) and 1% antibiotic/antimycotic solution (Invitrogen). Culture medium was replaced every 3 days containing 0.25 μM dexamethasone, 10 μg/ml insulin and 0.5 mM 3-isobutyl-1-methylxanthine (Sigma-Aldrich, St. Louis, MO, USA) in DMEM with 10% FBS. Differentiating 3T3-L1 preadipocytes were treated with TQ or Vitamin D3 or combinations thereof for 6 days.
(§2) The cultured adipocytes were homogenized and lysed in RIPA lysis buffer containing protease and phosphatase inhibitors (Complete TM Mini and PhosSTOPTM, Roche Diagnostics, Indianapolis, IN). Protein samples were separated using 10% sodium dodecyl sulfate-polyacrylamide (SDS) gels and transferred to a nitrocellulose membrane (Bio-Rad, Hercules, CA, USA). […] The blots were visualized using an Odyssey Infrared Imaging Scanner (Li-Cor Science Tec) and quantified by densitometric analysis after normalization with β-actin. […]
The levels of TNF-α produced by cultured, differentiated 3T3-L1 cells were measured using specific anti-TNF-α antibodies in a western blot assay, as described hereinabove. […]

PGC-1α = experiment: Western blot, PGC-1α expression in cultured adipocytes; details: TQ 1 μM, vitamin D3 10 nM, alone or combined; 6 days; relative to β-actin; FIG. 7
Protocol: as §1
as §2, with “IN).” for “IN). Protein samples were separated using 10% sodium dodecyl sulfate-polyacrylamide (SDS) gels and transferred to a nitrocellulose membrane (Bio-Rad, Hercules, CA, USA).”
(§3) The aim of this study was to investigate the effect of a combination of vitamin D3 (10 nM) and TQ (1 μM) on the expression of the UCP1, PGC-1α and Mfn2 genes in cultured adipocytes. […] Following SDS-PAGE separation and western blotting, the three gene products were detected using the appropriate antibodies, and the level of each protein measured, all as described above in the general methods section.

UCP1 = experiment: Western blot, UCP1 expression in cultured adipocytes; details: TQ 1 μM, vitamin D3 10 nM, alone or combined; 6 days; relative to β-actin; FIG. 6
Protocol: as §1
as §2, with “IN).” for “IN). Protein samples were separated using 10% sodium dodecyl sulfate-polyacrylamide (SDS) gels and transferred to a nitrocellulose membrane (Bio-Rad, Hercules, CA, USA).”
as §3

[1] = system: differentiated adipocytes (3T3-L1 cells); experiment: Oil red O staining, lipid droplet size in differentiated cultured adipocytes; details: 6 days, vs untreated control (C)
Protocol: as §1
The size of the lipid droplets in differentiated adipocytes (i.e., 3T3-L1 cells prepared as in the previous section) following the various treatments was measured using oil red O staining. Briefly, differentiated adipocytes were washed with phosphate buffered saline (PBS) and fixed in 3.7% formaldehyde for 10 min. Cells were stained with oil red O solution for 30 min at 25° C. Staining was visualized using bright-field microscopy. Lipid droplet size was then measured using Image Pro (advance Imaging Concept, Inc., Princeton, NJ).
The aim of this study was to investigate the effect of combinations of TQ and vitamin D3 on the accumulation of lipids in cultured adipocytes. For the purpose of this investigation, 3T3-L1 murine fibroblasts were grown and differentiated as described hereinabove. The differentiated cultures were then treated for six days with TO, vitamin D3 or combinations thereof. Following this treatment, the size of the accumulated lipid droplets within the cultured cells were assessed using the oil red O staining method described hereinabove.

Mfn2 = experiment: Western blot, Mfn2 expression in cultured adipocytes; details: TQ 1 μM, vitamin D3 10 nM, alone or combined; 6 days; relative to β-actin; vs untreated control (C); FIG. 8
Protocol: as §1
as §2, with “IN).” for “IN). Protein samples were separated using 10% sodium dodecyl sulfate-polyacrylamide (SDS) gels and transferred to a nitrocellulose membrane (Bio-Rad, Hercules, CA, USA).”
as §3

SMILES | decrease in TNF-α expression (TNF-α) | PGC-1α expression (PGC-1α) | UCP1 expression (UCP1) | average lipid droplet size ([1]; Vitamin D3 1 nM, FIG. 2) | average lipid droplet size ([1]; Vitamin D3 10 nm, FIG. 2) | average lipid droplet size ([1]; Vitamin D3 100 nm, FIG. 2) | Mfn2 expression (Mfn2) | average lipid droplet size ([1]; TQ 1 μM, FIG. 1) | average lipid droplet size ([1]; TQ 2 μM, FIG. 1) | average lipid droplet size ([1]; TQ 4 μM, FIG. 1)
C=C1CC[C@H](O)C/C1=C/C=C1\CCC[C@]2(C)[C@@H]([C@H](C)CCCC(C)C)CC[C@@H]12 [Vitamin D3, cholecalciferol, reference compound] | approximately 50% | statistically significant elevation of PGC-1α expression | statistically significant elevation of UCP1 expression | slight reduction in lipid droplet size, this reduction was not statistically significant | statistically significant reduction in lipid droplet size | statistically significant reduction in lipid droplet size | statistically significant elevation of Mfn2 expression |  |  | 
CC1=CC(=O)C(C(C)C)=CC1=O [TQ, thymoquinone] | approximately 50% | statistically significant elevation of PGC-1α expression | statistically significant elevation of UCP1 expression |  |  |  | statistically significant elevation of Mfn2 expression | statistically significant reduction in lipid droplet size | statistically significant reduction in lipid droplet size; also recorded: greater degree of size reduction than that caused by the 1 μM dose; also recorded: greatest effect | statistically significant reduction in lipid droplet size; also recorded: did not cause any further enhancement of this effect; also recorded: greatest effect
